Source: US20170164607A1, “METHODS OF EXTENDING THE SHELF LIFE OF SUGARCANE STEM SECTIONS AND COATED SUGARCANE STEM SECTIONS” (Syngenta Participations AG, priority 2014, published 2017)
Where two headings read alike, the source gives them in different places.

Key:
[1] = system: sugarcane stem sections; settings: for Avg. Germ / Avg. Height: evaluated seven days after planting
Procedure: Sugarcane stem sections having a diameter of approximately […] and a length of approximately 50 mm were generated (e.g., cut) from sugarcane stalks. One set of cut sugarcane stem section were dipped into the coating compositions for a dwell time of about 60 seconds, and subsequently allowed to dry at room temperature (i.e., about 30° C. Another set of control sugarcane stem sections were not coated and remained at room temperature (i.e., about 30° C.) (i.e., identified below as “No AgNO3”). The coated and control uncoated sugarcane stem sections were then planted as is (i.e., these stem sections are identified below as “Day Zero”) or stored for a period of time up to three weeks in an air tight jar at room temperature (i.e., about 30° C.). Following storage, the coated and control uncoated sugarcane stem sections were then germinated in biochamber boxes. All coated and control uncoated sugarcane stem sections were germinated in a growth chamber and evaluated seven days after planting.

[2] = system: sugarcane stem sections; settings: 300, 600 and 1200 μMol AgNO3; storage up to three weeks in air-tight jars at 16° C.; biochamber boxes or potted soil trays; FIGS. 2-7
From the text: Sugarcane stem sections (i.e., two varieties: CP 88-1762 and CP00-1101) having a diameter of approximately 25-30 mm and a length of approximately 50 mm were cut and coated (or left uncoated) as described in Example 1 using coating compositions having AgNO3 concentrations of 0, 300, 600 and 1200 μMol of AgNO3. The coated and control uncoated sugarcane stem sections were then planted as is or stored for a period of time up to three weeks in one gallon air-tight jars (i.e., about 20 coated sugarcane stem sections per jar) at 16° C. Following storage, the coated and control uncoated sugarcane stem sections were then germinated in either biochamber boxes or potted soil trays (i.e., 5 jars each) or both. All coated and control uncoated sugarcane stem sections were planted and evaluated as follows: germination rates were taken in the biochamber boxes at 3, 5, and 7 days after removal from the jars: germination rates were taken in the potted trays at 10, 12, and 14 days after removal from the jars.

[3] = system: sugarcane stem sections of CP88-1762
From the text: Sugarcane stem sections of CP88-1762 having a diameter of approximately 25-30 mm and a length or approximately 50 mm were coated with a standard treatment slurry (designated control treatment) or treated with the standard treatment slurry which also contained AgNO3 at a concentration of 600 μMol of AgNO3 (designated as AgNO3 treatment). The AgNO3 treated and control sugarcane stem sections were then planted as is or stored for a period of time up to three weeks in storage containers as shown in FIG. 1 (i.e., storage containers that allow gas transfer between an interior and an exterior of the storage container) at storage temperatures ranging from 10° C. to 22° C. Following storage, the AgNO3 treated and control sugarcane stem sections were planted in trays of potting soil and placed in a greenhouse. The trays were watered daily to maintain moisture and the greenhouse maintained at 26/20 C maximum/minimum temperatures with 15 hours light. Growth and germination of all AgNO3 treated and control sugarcane stem sections were evaluated at 7, 14, and 21 days after removal from storage containers.

[4] = system: sugarcane stem sections of CP88-762; settings: 14 days after planting
From the text: Sugarcane stem sections of CP88-762 having a diameter of approximately 25-30 mm and a length of approximately 50 mm were cut and treated with a standard treatment slurry or a standard treatment slurry containing AgNO3 at a final concentration of 600 μMol of AgNO3 as described in Example 3. The AgNO3 treated and control (without AgNO3) sugarcane stem sections were then planted as is or stored for an extended period of time up to 42 days in storage containers as shown at FIG. 1 (i.e., storage containers that allow gas transfer between an interior and so exterior of the storage container) at a storage temperature of 10° C. Following storage, the AgNO3 treated and control sugarcane stem sections were planted in trays of potting soil and placed in a greenhouse as described in example 3. All sugarcane stem sections were evaluated for germination and shoot growth at 14 days after planting.

[5] = 200 μMol AgNO3, 2 weeks storage in air tight jar at about 30° C.
[6] = 200 μMol AgNO3, 3 weeks storage in air tight jar at about 30° C.
[7] = 400 μMol AgNO3, 2 weeks storage in air tight jar at about 30° C.
[8] = 400 μMol AgNO3, 3 weeks storage in air tight jar at about 30° C.
[9] = 600 μMol AgNO3, 2 weeks storage in air tight jar at about 30° C.
[10] = 600 μMol AgNO3, 3 weeks storage in air tight jar at about 30° C.
[11] = after a weeks of storage in an air-tight jar (3 weeks rows of Table 1)
[12] = 600 μMol AgNO3 in standard treatment slurry, storage up to three weeks at 10° C. to 22° C. in gas-permeable containers, FIGS. 8-9

## O=[N+]([O-])[O-].[Ag+] [AgNO3, silver nitrate]
[1]; 200 μmol concentration, 2 weeks of storage in an air-tight jar
  germination compared to the control "no AgNO3" sample: increased germination
[1]; [5]
  Avg. Germ: 83.33%
  Avg. Height: 51.38 mm
[1]; [6]
  Avg. Germ: 52.50%
  Avg. Height: 42.91 mm
[1]; [7]
  Avg. Germ: 52.38%
  Avg. Height: 39.66 mm
[1]; [8]
  Avg. Germ: 45.00%
  Avg. Height: 30.53 mm
[1]; [9]
  Avg. Germ: 61.90%
  Avg. Height: 40.79 mm
[1]; [10]
  Avg. Germ: 87.50%
  Avg. Height: 55.19 mm
[1]; [11]
  germination over the control "non-AgNO3" samples: improved germination
  plant height over the control "non-AgNO3" samples: improved
[2]
  germination rates compared to the standard slurry applied sugarcane stem sections: improved germination rates
[3]; 600 μMol AgNO3, 7 through 21 days storage
  stem section germination: significant enhancement
[3]; 600 μMol AgNO3, all storage periods including day 0 planting
  shoot lengths: significant enhancement
[3]; 600 μMol AgNO3, stored for 14 days at 22° C., 28 days after planting, FIG. 10
  vitality of sugarcane plants compared to plants from control stem sections: much more vitality
[3]; [12]
  germination rates compared to control sugarcane stem sections: improved germination rates
  plant vitality (as measured by plant height) compared to control sugarcane stem sections: improved
[4]; 600 μMol AgNO3, after 6 weeks storage at 10° C., FIG. 11
  germination rate: 68%
[4]; 600 μMol AgNO3 in standard treatment slurry, throughout the 42 days of storage at 10° C., FIG. 11
  germination rates compared to control sugarcane stem sections: improved germination rates
[4]; 600 μMol AgNO3 in standard treatment slurry, throughout the 42 days of storage at 10° C., FIG. 12
  plant vitality (as measured by plant height) compared to control sugarcane stem sections: improved
